Results on nine molecules are retold here after patent US5260309A, “4,5,6,11-tetrahydrobenzo [6,7] cycloocta [1,2-b]thiophen-6,11-imines and 6,11-dihydrobenzo [6,7] cycloocta [1,2-b] thiophen-6,11-imines” (Pfizer Inc., priority 1992, dated 1993).

A word on the IC50: it is the concentration at which inhibition is half-maximal. A higher IC50 goes with weaker potency in that assay.

The structures appear in SMILES notation.

For one assay, the system named is P2 membranes from rat forebrain (3H-TCP binding). Nature of the assay: 3H-TCP binding assay (displacement of 3H-TCP from P2 membranes from rat forebrain). The settings on record: activity ratio (+)-enantiomer vs (-)-enantiomer. How it is done: P2 membranes from rat forebrain were suspended in 5 mM tris(hydroxymethyl)aminomethane hydrochloride buffer (pH 7.4). A solution of the test compound in H2 O or DMSO/H2 O was added followed by a solution of ^3 H-TCP The mixture was incubated for 20 minutes at 30° C. and then injected onto a glass fiber filter. The filters were washed with cold buffer and placed in vials for subsequent liquid scintillation spectrometry. IC50 were calculated from the amount of tritium label retained on the filters.
On the technique in general: In a radioligand displacement assay an active substance lowers the binding of a labelled ligand.
As for `CC12NC(CCc3ccsc31)c1ccccc12` (single isomer, unassigned; (+)) [(+)-enantiomer, (+)-11-methyl-4,5,6,11-tetrahydrobenzo[6,7]cycloocta[1,2-b]-thiophen-6,11-imine], the “times as active as the (-)-enantiomer in the 3H-TCP binding assay” value was “approximately eight”.

The same assay, now with this note: rat forebrain P2 membranes, pH 7.4, 20 minutes at 30° C.; upper bound stated for the group in micromolar.
For the molecule `CSc1cc2c(s1)C1(C)NC(CC2)c2ccccc21` (stereo not drawn) [Example 14, 2-Methylthio-11-methyl-4,5,6,11-tetrahydrobenzo[6,7]-cycloocta[1,2-b]thiophen-6,11-imine], the IC50 is no more than 2000 nM.

As for `CC12NC(C=Cc3ccsc31)c1ccccc12` (stereo not drawn) [Example 18, 11-Methyl-6,11-dihydrobenzo[6,7]cycloocta[1,2-b]thiophen-6,11-imine], the IC50 was no more than 2000 nM. On the same count and under the same terms, the same measure for `c1ccc2c(c1)C1CCc3ccsc3C2N1` (stereo not drawn) [Example 4, 4,5,6,11-Tetrahydrobenzo[6,7]cycloocta[1,2-b]thiophen-6,11-imine]: no more than 2000 nM; for `CC12NC(CCc3cc(Cl)sc31)c1ccccc12` (stereo not drawn) [Example 16, 2-Chloro-11-methyl-4,5,6,11-tetrahydrobenzo[6,7]-cycloocta[1,2-b]thiophen-6,11-imine]: no more than 2000 nM; for `CC12NC(CCc3cc(Br)sc31)c1ccccc12` (stereo not drawn) [15 (free amine), 2-bromo-11-methyl-4,5,6,11-tetrahydrobenzo[6,7]cycloocta[1,2-b]thiophen-6,11-imine]: no more than 2000 nM.

The assay is the same for the next values; noted with them: rat forebrain P2 membranes, pH 7.4, 20 minutes at 30° C.; upper bound stated for the group in nanomolar.
In turn, `CC12NC(CCc3ccsc31)c1cc(F)ccc12` (stereo not drawn) [Example 22, 8-Fluoro-11-methyl-4,5,6,11-tetrahydrobenzo[6,7]-cycloocta[1,2-b]thiophen-6,11-imine] registered an IC50 of no more than 40 nM. Still for that read-out and setting: as for `CC12NC(CCc3ccsc31)c1ccccc12` (stereo not drawn) [Example 9, 11-Methyl-4,5,6,11-tetrahydrobenzo[6,7]cycloocta-[1,2-b]thiophen-6,11-imine], the figure is no more than 40 nM. Still for that read-out and setting: the same measure for `Cc1ccc2c(c1)C1CCc3ccsc3C2(C)N1` (stereo not drawn) [Example 26, 8.11-Dimethyl-4,5,6,11-tetrahydrobenzo[6,7]cycloocta-[1,2-b]thiophen-6,11-imine]: no more than 40 nM.
